Patent publication EP4600263A1, “KERATIN YK93-9, PREPARATION METHOD THEREFOR, PHARMACEUTICAL COMPOSITION THEREOF, AND USE THEREOF” (INSTITUTE OF MATERIA MEDICA, CHINESE ACADEMY OF MEDICAL …, priority 2022, dated 2024)
Structures can show the parent of a compound that is named as a salt.

Experiments:
[1] = system: acetic acid-induced writhing of mice; assay: pharmacodynamic test on mouse pain model (acetic acid-induced writhing); type: in vivo, Kunming mice; conditions: Tramadol Hydrochloride 50mg/kg; 1% acetic acid intraperitoneally, writhing within 15 minutes
Protocol: • Animals: Male Kunming mice; • Drugs: Tramadol Hydrochloride Sustained Release Tablets, Glacial acetic acid, YK93-9; • Instruments: electronic balance, timer • Experiment grouping: • Normal control group; • Positive control group: Tramadol Hydrochloride group; • Protein YK93-9, (0.5g/kg) group.
Mice in the YK93-9 (0.5g/kg) group were administered by gavage, while mice in the model group were given an equal volume of CMC-Na once a day for 7 consecutive days. 30 minutes after the last administration, 1% acetic acid was administered intraperitoneally, and the writhing times of mice within 15 minutes was recorded, and the inhibition rate of drug-induced writhing reaction was calculated. The observation criteria were concave abdominal cavity, extended hind limbs, and raised buttocks.
The inhibition rate was calculated by (Mean number of writhing reactions in the normal control group - Mean number of writhing reactions in the treatment group)/Mean number of writhing reactions in the normal control group *100%.

[2] = system: mouse prostatic hyperplasia model; assay: pharmacodynamic test on mouse prostatic hyperplasia model (subcutaneous propionate testosterone); type: in vivo, Kunming mice; conditions: 30 days; for Average weight: male Kunming mice; for prostate index: wet weight of the prostate (mg)/body weight of the mouse (g)
Protocol: • Animals: Male Kunming mice, weight: 18-20 grams • Drugs: propionate testosterone injection (Ningbo Second Hormon Factory), finasteride (Merck Sharp & Dohme, MSD) • Instruments: electronic balance • Experiment grouping: Normal control group; • Model group: Androgen loading Model; • Positive control group: finasteride (1mg/kg) group; finasteride (3 mg/kg) group; • YK93-9 (0.5g/kg) group.
Preparation of experimental animals: The experimental animals were adapted to the experimental environment (temperature 22°C±2°C, relative humidity 50%±2%) for 1 day.
Subcutaneous injection of propionate testosterone to replicate mice prostatic hyperplasia model: Mice were randomly grouped 10 in each group before the model being established. Propionate testosterone (0.01mg/kg) in soybean oil was injected subcutaneously, once a day for 30 consecutive days. Mice in the normal control group were injected subcutaneously with an equal volume of sodium carboxymethyl cellulose. Immediately after the model was established, finasteride 1mg/kg, finasteride 3m g/kg, or YK93-9 0.5g/kg were orally administered. Mice were weighed on the next day. After 30 days of administration, mice were weighed, executed. The prostate was excised through a median incision in the lower abdomen, the wet weight was weighed, and the prostate index was calculated by the wet weight of the prostate (mg)/body weight of the mouse (g).
The average value, standard deviation and standard error of the prostate index in each group were calculated. The data from the groups were compared with each other by T.TEST, and P<0.05 was considered as a significant difference.

[3] = cyclophosphamide 0.1 g/kg group, before administration
[4] = cyclophosphamide 0.1 g/kg once a week
[5] = cyclophosphamide 0.1 g/kg intraperitoneally, single time
[6] = cyclophosphamide 0.1 g/kg intraperitoneally, single time, vs normal control group
[7] = cyclophosphamide 100mg/kg, vs normal control group, P<0.05

Protocol for B16F10 melanoma: Subcutaneous inoculation of B16F10 cell suspension to replicate a mouse melanoma model: Under sterile conditions, the tumor block was removed, ground into tumor fluid, the concentration was adjusted with physiological saline to 2.58 × 10^6 /ml, and 0.2 ml was taken to evenly inoculate subcutaneously on the armpit back of mice. On the next day, the animals were randomly grouped and administration began (recorded as Day 0). […] On the day of treatment, weight was measured, 20µL of blood was obtained by taking blood from the eye socket and the blood routine analysis was performed, the tumor block was peeled off, weighed and photographed, and the tumor suppression rate was calculated.
(§1) The tumor suppression rate [(The average weight of the tumor in the normal control group - the average weight of the tumor in the experimental group) / The average weight of the tumor in the normal control group × 100 %] and average value, standard deviation and standard errors of tumor weight were calculated. The data from the groups were compared with each other by T.TEST, and P<0.05 was considered as a significant difference.
Protocol for EL-4 lymphoma: Subcutaneous inoculation of EL-4 cell suspension to replicate a mouse lymphoma model: The EL-4 tumor tissue was ground into a suspension using a glass homogenizer, the tumor suspension was aspirated with a syringe, the number of live cells was calculated, the cell concentration was adjusted to 2.0*10^6/ml with physiological saline, and then the suspension was injected into the left armpit of mice with 0.2 ml/mouse. […] On the day of treatment, weight was measured, 20µl of blood was obtained from the orbital blood and the routine blood analysis was performed. The tumor blocks were stripped, weighed and photographed, and the tumor suppression rate was calculated.
as §1
Protocol for Lewis lung cancer: Subcutaneous inoculation of Lewis cell suspension to replicate mouse breast cancer model: The Lewis tumor tissue was ground into a suspension with a glass homogenizer, the tumor suspension was aspirated with a syringe, the number of live cells was calculated, the concentration of the cells was adjusted to 2.6*10^6/ml with physiological saline, and then the suspension was injected to the left armpit of the mouse with 0.2 ml/mouse. […] On the day of the treatment, the weight was measured, 20µl of blood was obtained from the orbital blood and the routine blood analysis was performed. The tumor blocks were stripped, weighed and photographed, and the tumor suppression rate was calculated.
The tumor suppression rate [(The average weight of the tumor in the normal control group - the average weight of the tumor in the experimental group) / The average weight of the tumor in the normal control group × 100 %] and the average value, standard deviation and standard errors of tumor weight were calculated . The data from the groups were compared with each other by T.TEST, and P<0.05 was considered as a significant difference.

In the case of COc1cccc(C2(O)CCCCC2CN(C)C)c1 (stereo not drawn) [Tramadol Hydrochloride], the Number of writhing [1] was 0.0±0.00.
In the case of O=P1(N(CCCl)CCCl)NCCCO1 (stereo not drawn) [cyclophosphamide, Cyclophosphamide], the “Change of weight Before administration” value (B16F10 melanoma; [3]) was 18.97 ± 0.55 g, the “Change of weight After administration” value (B16F10 melanoma; [4]) was 19.07 ± 1.46 g and the Tumor weight (B16F10 melanoma; [4]) was 0.26 ± 0.11 g. It also gave a Tumor suppression (B16F10 melanoma; cyclophosphamide 0.1 g/kg once a week, vs normal control group) of 85.82%, a Tumor weight (EL-4 lymphoma; [5]) of 0.12 ± 0.03 g and a Tumor suppression (EL-4 lymphoma; [6]) of 95.67%. The “leukocytes (routine blood analysis)” value (EL-4 lymphoma; [7]) was “significantly reduced”, the “lymphocytes (routine blood analysis)” value (EL-4 lymphoma; [7]) was “significantly reduced” and the “monocytes (routine blood analysis)” value (EL-4 lymphoma; [7]) was “significantly reduced”. For the same compound, the “neutrophils (routine blood analysis)” value (EL-4 lymphoma; [7]) was “significantly reduced”, the “Change of weight Before administration” value (Lewis lung cancer; [3]) was 17.60 ± 0.59 g and the “Change of weight After administration” value (Lewis lung cancer; [5]) was 19.95 ± 0.77 g. For the same compound, the Tumor weight (Lewis lung cancer; [5]) was 0.14 ± 0.09 g and the Tumor suppression (Lewis lung cancer; [6]) was 95.35%.
For CC(C)(C)NC(=O)[C@H]1CC[C@H]2[C@@H]3CC[C@H]4NC(=O)C=C[C@]4(C)[C@H]3CC[C@]12C [finasteride], the “wet weight of the prostate” value ([2]; finasteride 1mg/kg orally) was 31.8 ± 4.8 mg, the Average weight ([2]; finasteride 1mg/kg orally) was 43.5 ± 3.5 g and the prostate index ([2]; finasteride 1mg/kg orally) was 0.75±0.12. The “wet weight of the prostate” value ([2]; finasteride 3mg/kg orally) was 29.2 ± 1.4 mg, the Average weight ([2]; finasteride 3mg/kg orally) was 40.7 ± 3.1 g and the prostate index ([2]; finasteride 3mg/kg orally) was 0.72±0.08.
